Assay [1] concerns Penicillium italicum. Kind of assay: In vitro antifungal activity, 96-well microtiter plates. Format: cell-based. As to conditions: 25° C., day 10, 0.63 ppm natamycin, 25 ppm isopyrazam or both. The method, then: Subsequently, 100 μl of a Botrytis cinerea suspension prepared in PCB medium was used to inoculated each well with 2.5×10^3 spores/ml.
After incubation of the microtiter plates at 25° C., the in vitro antifungal activity (%) of the individual active ingredients was assessed by calculating the reduction in mould growth observed in the presence of the active ingredient in comparison to the mould growth observed in the absence of the active ingredient. The expected antifungal activity (E in %) of the active ingredient combination was calculated according to the Colby equation (Colby, 1967): E=X+Y−[(X·Y)/100] wherein X and Y are the observed antifungal activities (in %) of the individual active ingredients X and Y, respectively. If the observed antifungal activity (O in %) of the combination exceeds the expected antifungal activity (E in %) of the combination and the resulting synergy factor O/E is thus >1.0, the combined application of the active ingredients leads to a synergistic antifungal effect.
Furthermore, Penicillium italicum was used for inoculation.

Assay [2] concerns Botrytis cinerea. The assay is described as above. Format: cell-based. As to conditions: 25° C., day 3, 1.25 ppm natamycin, 6.25 ppm isopyrazam or both. As for the experimental part:
Subsequently, 100 μl of a Botrytis cinerea suspension prepared in PCB medium was used to inoculated each well with 2.5×10^3 spores/ml. […] After incubation of the microtiter plates at 25° C., the in vitro antifungal activity (%) of the individual active ingredients was assessed by calculating the reduction in mould growth observed in the presence of the active ingredient in comparison to the mould growth observed in the absence of the active ingredient. The expected antifungal activity (E in %) of the active ingredient combination was calculated according to the Colby equation (Colby, 1967): […]

Structures are written as SMILES.

Regarding `CC(C)C1C2CCC1c1c(NC(=O)c3cn(C)nc3C(F)F)cccc12` (centres unmarked) [Isopyrazam, isopyrazam], the “Observed antifungal activity O (%)” value in assay [1] turned out to be 50%; in assay [2] it was 0%.

The record behind these values is patent US9167822B2, “Antifungal compositions” (DSM IP ASSETS B.V., priority 2012, dated 2015).
